Data: PMC11909904 (Cardiovascular Diabetology, 2025)

Biological target: T1, GPR30 (Rattus norvegicus, UniProt O08878)
T1 sequence (O08878 1-375): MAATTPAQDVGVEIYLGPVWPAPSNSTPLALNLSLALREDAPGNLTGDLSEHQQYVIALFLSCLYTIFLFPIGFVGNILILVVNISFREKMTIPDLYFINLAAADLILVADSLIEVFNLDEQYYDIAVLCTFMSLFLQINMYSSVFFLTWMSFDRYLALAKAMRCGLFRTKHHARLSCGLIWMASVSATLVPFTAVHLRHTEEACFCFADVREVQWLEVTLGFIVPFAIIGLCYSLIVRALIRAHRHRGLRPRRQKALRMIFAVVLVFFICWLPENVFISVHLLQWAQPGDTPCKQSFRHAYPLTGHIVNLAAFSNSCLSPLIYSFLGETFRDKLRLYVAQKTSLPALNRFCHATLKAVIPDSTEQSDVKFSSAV
Assay: CETSA in intact RVECs and lysates
Type: biochemical
Conditions: 30 µM Rd (CETSA)

`CC(C)=CCC[C@](C)(O[C@@H]1O[C@H](CO)[C@@H](O)[C@H](O)[C@H]1O)[C@H]1CC[C@]2(C)[C@@H]1[C@H](O)C[C@@H]1[C@@]3(C)CC[C@H](O[C@@H]4O[C@H](CO)[C@@H](O)[C@H](O)[C@H]4O[C@@H]4O[C@H](CO)[C@@H](O)[C@H](O)[C@H]4O)C(C)(C)[C@@H]3CC[C@]12C` [Rd, Ginsenoside Rd] was tested, and the CETSA was “the incubation with Rd stabilized GPR30 in heat-denatured intact RVECs and cell lysates”.
